Tests used:
PGE2 = PGE2 release from rat neuronal cultures (enzyme immunoassay / ELISA of culture media); assay type: cell-based; settings: rat neurons, L-homocysteine 50 μM four hours, with DL-AP5 200 μM, MK801 10 μM, NVP-AAM077 30 nM, Ro 25-6981 1 μM, PD98059 15 μM, SB203580 5 μM, Bengamide B 500 nM or CAY10404 100 nM
Procedure: (§1) Neuron cultures were treated with or without L-homocysteine in the presence or absence of pharmacological inhibitors for the time period specified in each experiment. The medium was collected from each experimental plate and centrifuged at 1000 rpm for five minutes to remove cellular debris. Equal amounts (100 μl) of the supernatant from each sample were used to determine the amount of PGE2 using the PGE2 enzyme immunoassay kit according to the manufacturer's instructions. For measurement of cPLA2 activity, the neuronal cells from the above treated conditions were harvested in ice-cold Tris-buffered saline (pH7.4) containing sodium pyrophosphate as phosphatase inhibitor, sonicated three times with five-second bursts and two minutes on ice between intervals. The lysed cell suspensions were centrifuged at 10,000 rpm for 10 minutes and the supernatant removed. Equal amounts of protein from the supernatant (assessed using BCA protein estimation kit) were estimated for activity of cPLA2 using cPLA2 activity assay kit according to the manufacturer's protocol.
For measurement of PGE2 levels and MCP-1 levels released from neurons, culture medium was collected from each experimental plate and centrifuged at 1000 rpm for five minutes to remove cellular debris. Equal volume (100 μl) of the supernatant from each sample was used to determine PGE2 level using the PGE2 ELISA kit according to the manufacturer's instructions.

COX2 = COX2 protein level in rat neuronal cultures (immunoblot); assay type: cell-based; settings: rat neurons, L-homocysteine 50 μM four hours, with MK801 10 μM, NVP-AAM077 30 nM, Ro 25-6981 1 μM, PD98059 15 μM, SB203580 5 μM or Bengamide B 500 nM
Procedure: (§2) Equal protein from total cell lysates obtained from rat and mice neuronal cultures were resolved in 7.5% SDS-PAGE, and subjected to immunoblotting procedure as described earlier (Poddar and Paul, 2009, J Neurochem 110:1095-1106). Blots were analyzed with antibodies as described in each experiment. All primary antibodies (anti-COX2, anti-B-tubulin) and secondary-horse radish peroxidase conjugated antibody concentrations were used according to recommendations provided by the manufacturer. Signals from immune complexes in the blots were developed using West Pico supersignal chemiluminescence reagents and then captured on X-ray films. Densitometric analysis of the images was performed using the Image J software.
Rat and mice neuronal cultures were washed with PBS (pH 7.4), containing sodium pyrophosphate and sodium vanadate as phosphatase inhibitors, and harvested in SDS sample buffer (Laemmli, 1970, Nature 227:680-685). Equal protein from total cell lysates, estimated using BCA kit, was resolved by SDS-PAGE (7.5%) followed by western blotting on PVDF membranes. Immunoblot analysis was performed by first blocking with 5% non-fat dry milk for 1 h at room temperature followed by incubation with either COX2 immunoblot analysis (Poddar and Paul, 2009, J Neurochem 110:1095-1106) as described in each experiment. All primary antibodies and horseradish peroxidase conjugated secondary antibodies were used according to manufacturer's recommendations. Signals from immune complexes in the blots were developed using West Pico supersignal chemiluminescence reagents and then captured on X-ray films. Densitometric analysis of the images was performed using the NIH Image J software.

cPLA2 = cPLA2 activity in rat neuronal lysates (enzymatic assay); assay type: cell-based; settings: rat neurons, L-homocysteine 50 μM four hours, with MK801 10 μM, NVP-AAM077 30 nM, Ro 25-6981 1 μM, PD98059 15 μM or SB203580 5 μM
Procedure: as §1
For measurement of cPLA2 activity and MCP-1 levels in cell lysates, neuronal lysates were prepared by harvesting neurons in ice-cold Tris-buffered saline (pH 7.4) containing phosphatase inhibitor, sonicated three times in five-second bursts and placed on ice (two minutes) between each burst of sonication. The lysed cell suspensions were centrifuged at 10,000 rpm (10 minutes) and the supernatant was collected in another tube. Equal amounts of protein from the supernatant were processed for cPLA2 activity assay according to the manufacturer's protocol. Equal protein from the lysates were also used to estimate MCP-1 levels using an MCP-1 ELISA kit.

[1] = system: rat cortical neuronal cultures; assay: Neuronal cell death by Hoechst DNA staining, rat cortical neuron cultures; assay type: cell-based; settings: rat neurons, with NVP-AAM077 30 nM or PD98059 15 μM
Procedure: (§3) Neurons were subjected to staining with Hoechst 33342 dye for 15 minutes, washed extensively with PBS, and analyzed using fluorescent microscopy to assess nuclear damage. Imaging was performed with a Zeiss Axiovert 200M fluorescence microscope with attached AxioCam CCD camera using 20× objective lens (Carl Zeiss, Thomwood, N.Y.). To quantitatively assess the percentage of pyknotic nuclei a total of 1000 cells were counted for each set of experiments. Mean±SEM (n=3) were used for statistical comparison using ANOVA (Bonferroni's multiple comparison test). Differences were considered significant when p<0.05.
(§4) […] Glutamate treated cells were then maintained in their original medium for another 17 hours. For some experiments, neurons were treated with L-homocysteine or glutamate in the presence of NVP-AAM077 or PD98059. The neurons were then fixed and stained with Hoechst 33342 dye as previously described (Poddar and Paul, 2009, J Neurochem 110:1095-1106). Percentage of pyknotic nuclei was quantitatively assessed by fluorescent microscopy to determine the extent of neuronal death.

[2] = system: neuron cultures from WT and GluN2A-KO mice; assay: Neuronal cell death by Hoechst DNA staining, WT and GluN2A-KO mouse neuron cultures; assay type: cell-based; settings: PD98059 15 μM
Procedure: as §3, §4

[Ca^2+]i [3] = Intracellular Ca^2+ by Fura2 imaging, rat neuronal cultures; assay type: cell-based; settings: rat neurons
Procedure: (§5) Embryos obtained from pregnant Sprague Dawley rats (16-17-day gestation) or wild type (WT) and GluN2A KO mice (15-16-day gestation) were used to establish primary cortical neuronal cultures as previously described (Poddar and Paul, 2009, J Neurochem 110:1095-1106; Poddar and Paul, 2013, J Neurochem 124:558-570; Poddar et al., 2017, J Neurochem 142:560-573). Neurons were grown on either (a) 35-mm culture dishes (MatTek Corp., Ashland, Mass.) coated overnight with poly-D-lysine (50 μg/ml) and laminin (10 μg/ml) for Ca^2+ imaging studies, (b) poly-D-lysine-coated 60 mm dishes (Corning BIOCOAT, Corning Inc., Corning, N.Y.) for biochemical studies, or (c) poly-D-lysine-coated 4-well culture slides (Corning BIOCOAT, Corning Inc., Corning, N.Y.) for cell death assay. Neurons were maintained in culture for 12-13 days before experiment. The cells were treated with freshly prepared L-homocysteine (50 μM) in Hank's balanced salt solution containing 50 μM of glycine (Lipton et al., 1997, Proceedings of the National Academy of Sciences of the United States of America 94:5923-5928; Poddar and Paul, 2009, J Neurochem 110:1095-1106; Poddar and Paul, 2013, J Neurochem 124:558-570; Poddar et al., 2017, J Neurochem 142:560-573) for the specified time periods. In a parallel series of experiments, cells were treated with glutamate (50 μM) for the specified time periods. Cells were then processed for live cell imaging, immunoblotting or cell death assay. In some experiments EGTA, DL-AP5, NVP-AAM077, Ro 25-6981 or PD98059 was added 15 minutes prior to L-homocysteine or glutamate treatment.
[Ca^2+]i in neurons was determined using the fluorescent indicator, Fura2-AM. Briefly, neurons were loaded with Fura2 (10 μM) in phenol red free Hank's balanced salt solution for 30 minutes at 37° C. followed by post-incubation for 20 minutes (Paul, S. and Connor, J. A., 2010, J Neurochem 114:1107-1118). Time lapse live cell imaging was performed following stimulation using a Nikon Ti Eclipse inverted microscope equipped with Tokai Hit stage top incubator maintained at 37° C. and infused with 95:5% air:CO2 mixture. Fields of 5-8 cells were imaged using a 40× oil immersion objective (Nikon). Fluorescence excitations (340 and 380 nm) were provided with Sutter LB-LS/30 Lambda xenon arc lamp and fluorescence emissions (510 nm) were captured using a CCD camera (Teledyne Photometries, Tucson, Ariz.). NIS Elements AR software was used for data acquisition and analysis. Ratiometric data (340/380 nm) from regions of interest were corrected for background and converted into estimates of [Ca^2+]i. as described previously (Paul, S. and Connor, J. A., 2010, J Neurochem 114:1107-1118) using the equation developed earlier (Grynkiewicz et al., 1985, J Biol Chem 260:3440-3450). Maximum and minimum fluorescence ratios were determined from Fura2 loaded cells treated with ionomycin (5 μM) in calcium containing medium (2 mM) or in calcium free media with EGTA (0.5 mM).

ERK MAPK [4] = assay: ERK MAPK phosphorylation in rat cortical neuron cultures (immunoblot); assay type: cell-based; settings: rat neurons, glutamate 50 μM, 5, 30 or 60 minutes
Description: (§6) Primary cortical neuronal cultures were established from embryos obtained from pregnant Sprague Dawley female rats (16-17 day gestation) as previously described (Podder and Paul, 2009, J Neurochem 110:1095-1106; Poddar and Paul, 2013, J Neurochem 124: 558-570). Primary cortical neuronal cultures were also developed from pregnant wildtype or GluN2A-knockout mice (15-16 day gestation) using similar protocols. The cells were maintained in culture for 12-14 days prior to treatment with homocysteine. L-homocysteine (200 mM stock) was prepared by alkali hydrolysis of L-homocysteine thiolactone hydrochloride followed by neutralization with 2N HCL and maintained in 0.02 mM N-Tris(hydroxymethyl)methyl-2-aminoethanesulfonicd acid (TES) buffer pH 7.4 (Poddar et al., 2001, Circulation 103:2717-2723). For receptor stimulation neurons were treated with freshly prepared 50 μM of L-homocysteine in Hank's balanced salt solution (Podder and Paul, 2009, J Neurochem 110:1095-1106; Poddar and Paul, 2013, J Neurochem 124: 558-570) containing 50 μM of glycine (Lipton et al., 1997, Proc Natl Acad Sci USA 94:5923-5928). In a subset of culture plates, pharmacological inhibitors (NVP-AAM007) were added […] prior to homocysteine addition and maintained during homocysteine treatment. Cells were processed for immunoblotting or Hoechst DNA staining.
as §2, with “(Podder” for “(Poddar”, “(anti-pERK, anti-ERK)” for “(anti-COX2, anti-B-tubulin)”
as §5
Rat and mice neuron cultures were harvested in SDS sample buffer (Laemmli, 1970, Nature 227:680-685). […]

ERK MAPK [5] = assay: ERK MAPK phosphorylation in WT and GluN2A-KO mouse neuron cultures (immunoblot); assay type: cell-based, mice; settings: both WT and GluN2A-KO mice cultures, glutamate 50 μM
Description: as §6
as §2, with “(Podder” for “(Poddar”, “(anti-pERK, anti-ERK)” for “(anti-COX2, anti-B-tubulin)”
as §5, with “In some experiments EGTA, DL-AP5, NVP-AAM077, Ro 25-6981 or PD98059 was added 15 minutes prior to L-homocysteine or glutamate treatment.” left out

[Ca^2+]i [6] = Intracellular Ca^2+ by Fura2 imaging, WT and GluN2A KO mouse neuronal cultures; assay type: cell-based, mice; settings: neurons from both WT and GluN2A-KO mice, glutamate 50 μM
Procedure: as §5
[Ca^2+]i in neurons was determined using the fluorescent indicator, Fura2-AM. […] Fluorescence excitations (340 and 380 nm) were provided with Sutter LB-LS/30 Lambda xenon arc lamp and fluorescence emissions (510 nm) were captured using a CCD camera (Teledyne Photometries, Tucson, Ariz.). […] Maximum and minimum fluorescence ratios were determined from Fura2 loaded cells treated with ionomycin (5 μM) in calcium containing medium (2 mM) or in calcium free media with EGTA (0.5 mM).

SMILES: CS(=O)(=O)c1ccc(-c2noc(C(F)(F)F)c2-c2ccccc2)cc1 [CAY10404]
- effect on homocysteine-induced PGE2 release (PGE2): significantly reduced

SMILES: COc1cccc(-c2cc(=O)c3ccccc3o2)c1N [PD98059]
- effect on homocysteine-induced increase in COX2 protein level (COX2): significantly reduced
- effect on homocysteine-mediated increase in cPLA2 activity (cPLA2): significantly attenuates homocysteine-mediated increase in cPLA2 activity
- effect on homocysteine-induced neuronal death ([1]; L-homocysteine 50 μM 18 hours): attenuates homocysteine-induced neurotoxicity
- effect on glutamate induced neuronal cell death ([1]; glutamate 50 μM one hour then 17 hours in original medium): remain unaffected
- effect on homocysteine-induced neurotoxicity ([2]; neurons from WT mice, L-Hcy 50 μM 18 hours): significantly reduced
- effect on glutamate-induced neurotoxicity ([2]; neurons from either WT or GluN2A KO mice, glutamate 50 μM one hour then 17 hours): fails to reduce glutamate-induced neurotoxicity
- effect on homocysteine-induced PGE2 release (PGE2): decreases significantly

SMILES: CCCCCCCCCCCCCC(=O)O[C@H]1CC[C@H](NC(=O)[C@H](OC)[C@H](O)[C@@H](O)[C@H](O)/C=C/C(C)C)C(=O)N(C)C1 [Bengamide B]
- effect on homocysteine-induced increase in COX2 protein level (COX2): attenuates homocysteine-induced increase in COX2 protein level
- effect on homocysteine-induced PGE2 release (PGE2): significant decrease in PGE2 level

SMILES: C[C@]12N[C@H](Cc3ccccc31)c1ccccc12 [MK801]
- effect on homocysteine-induced increase in COX2 protein level (COX2): blocks homocysteine induced COX2 protein expression
- effect on homocysteine-mediated increase in cPLA2 activity (cPLA2): is blocked
- effect on homocysteine-induced PGE2 release (PGE2): significantly reduced

SMILES: N[C@@H](CCC(=O)O)C(=O)O [glutamate]
- increase in [Ca^2+]i ([Ca^2+]i [3]; glutamate 50 μM, within 2.5 minutes): approximately 21 fold
- ERK MAPK phosphorylation (ERK MAPK [4]): rapid but transient increase in ERK MAPK phosphorylation
- ERK MAPK phosphorylation (ERK MAPK [5]): rapid but transient increase in ERK MAPK phosphorylation
- Fura2 fluorescence ratio and [Ca^2+]i ([Ca^2+]i [6]): rapid increase in Fura2 fluorescence ratio and [Ca^2+]i

SMILES: O=C(O)CN(CCOCCOCCN(CC(=O)O)CC(=O)O)CC(=O)O [EGTA]
- effect on homocysteine-induced increase in Fura2 fluorescence ratio and [Ca^2+]i ([Ca^2+]i [3]; somata and processes, L-homocysteine 50 μM 60 minutes, with EGTA 2 mM, DL-AP5 200 μM, NVP-AAM077 30 nM or Ro 25-6981 1 μM): are blocked

SMILES: C[S+]([O-])c1ccc(-c2nc(-c3ccncc3)c(-c3ccc(F)cc3)[nH]2)cc1 (stereo not drawn) [SB203580]
- effect on homocysteine-induced increase in COX2 protein level (COX2): significant reduction
- effect on homocysteine-mediated increase in cPLA2 activity (cPLA2): significant reduction
- effect on homocysteine-induced PGE2 release (PGE2): significant reduction
